From article PMC12155840 (Molecules, 2025)
One block for each compound: values may come before it.

What was measured:
[1] = target: T1, human A1 adenosine receptor (hA1R) (Homo sapiens, UniProt P30542); assay: cAMP inhibition assay, allosteric mode with adenosine as orthosteric agonist, CHO-K1-hA1R cells; operational allosteric ternary complex model; format: cell-based; design: host or cells: CHO-K1; conditions: for Allosteric modulation of adenosine-induced cAMP inhibition (shift of concentration-response curve): test compound at 20 µM; for Logαβ (binding and activation cooperativity) / αβ / τB / Kb / Kd / LogτB (operational efficacy as allosteric agonist): orthosteric agonist adenosine; for αβ / τB: antilogarithm; for Kb: antilogarithm of logKB; for Kd: operational model fit, read-out: logKB (converted)
T1 sequence (P30542 1-326): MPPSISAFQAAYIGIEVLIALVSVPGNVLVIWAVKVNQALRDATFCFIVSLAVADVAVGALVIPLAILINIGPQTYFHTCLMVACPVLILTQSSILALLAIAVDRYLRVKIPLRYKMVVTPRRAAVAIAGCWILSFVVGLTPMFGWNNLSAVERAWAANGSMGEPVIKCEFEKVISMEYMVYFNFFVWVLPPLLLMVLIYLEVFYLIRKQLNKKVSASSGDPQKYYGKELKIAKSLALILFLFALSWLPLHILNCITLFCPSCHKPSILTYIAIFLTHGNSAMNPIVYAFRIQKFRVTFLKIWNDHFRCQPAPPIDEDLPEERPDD

[2] = target: T1, human A1 adenosine receptor (hA1R); assay: cAMP inhibition assay, direct agonist mode, in CHO-K1-hA1R cells (Cisbio cAMP Gi kit, forskolin co-stimulation); conditions: 0.01 to 50 µM
human A1 receptor = target: T2, human A1 receptor (Homo sapiens, UniProt P30542); assay: cAMP inhibition assay, allosteric mode with CPA as orthosteric agonist (DiscoverX HitHunter cAMP XS+), CHO-K1 cells overexpressing the human A1 receptor; operational allosteric ternary complex model; format: cell-based; conditions: for αβ / τB: antilogarithm; for Kb: antilogarithm of logKB; for Kd: operational model fit, read-out: logKB (converted)
T2 construct: host or cells: CHO-K1
T2 sequence (P30542 1-326): T1 sequence (P30542 1-326)
Protocol: Experiments with CPA as an agonist: In experiments with CPA as an agonist, inhibition of intracellular cAMP production in response to CPA stimulation of the receptor was determined using a functional assay in CHO-K1 cells overexpressing the human A1 receptor (Eurofins DiscoverX Corporation, Fremont, CA, USA). Cells were seeded in a total volume of 20 μL into white-walled, 384-well microplates and incubated at 37 °C for the appropriate time prior to testing.
Experiments with CPA as an agonist: cAMP production was measured using the DiscoverX HitHunter cAMP XS+ assay (Eurofins DiscoverX Corporation, Fremont, CA, USA). For allosteric modulation studies, cells were pre-incubated with allosteric modulators at various concentrations, followed by induction with the agonist CPA at its EC20 concentration (i.e., the concentration eliciting 20% of the maximal response). Media were aspirated from cells and replaced with 10 μL of HBSS (10 mM HEPES). Sample stocks were diluted to prepare a 4-fold higher (4x) concentration than the final in-well concentration. Next, 5 μL of the 4x compound was added to the cells and incubated at room temperature or 37 °C for 10 min. This was followed by the addition of 5 μL of the 4x EC20 agonist solution and further incubation for 30 min at 37 °C. To stimulate intracellular cAMP production and provide a dynamic range for detecting Gi-mediated inhibition, forskolin at its EC80 was included in all experiments. The final DMSO (vehicle) concentration was 1%. After incubation with compounds, the assay signal was generated by adding 5 uL of and cAMP XS+ Ab reagent followed by 20 μL of the cAMP XS+ ED/CL lysis cocktail and then incubating for 1 h. This was followed by adding 20 μL of the cAMP XS+ EA reagent and incubating for 2 h at room temperature. Chemiluminescent signals were detected using a PerkinElmer EnVision™ instrument. Compound activity was analyzed using the CBIS data analysis suite (ChemInnovation, San Diego, CA, USA). Control dose–response curves were generated using CPA as the agonist. Data were normalized to the maximal response observed with CPA (positive control) and the minimal response observed with vehicle (1% DMSO, negative control).
The operational allosteric ternary complex model (ATCM) accounts for the ability of an allosteric ligand to modify affinity and/or efficacy and even activate a receptor independently. This model describes a simplified case for positive allosteric modulators (PAMs), where the orthosteric ligand is a full agonist.
Explanation of parameters: A = Agonist concentration; B = Allosteric modulator concentration; KB = Dissociation constant for the modulator; αβ = Allosteric coupling constant; τB = Intrinsic activity of the modulator; EC50 = Half-maximal effective concentration of the agonist; n = Hill coefficient; Emax = Maximal system response; Basal = Basal activity (response in the absence of any ligand); Span = Emax − Basal (difference between maximum and basal activity).
The response curve Y is defined as follows: Y=Basal+Span·(Part1)/(Part1+Part2) where Part1=A·KB+αβ·B+τB·B·EC50^n Part2=(EC50^n·(KB+B))^n Span=Emax−Basal

human A1 receptors = tested on: human A1 receptors; design: method as in PMID 30644086; conditions: 1, 10 and 30 µM, human A1 receptors in HEK293T cells; cited from earlier work
rat A1 receptors = tested on: rat A1 receptors; design: method as in PMID 30644086; conditions: 1, 10 and 30 µM, rat A1 receptors in HEK293T cells; cited from earlier work
[3] = design: method as in PMID 19156843; conditions: isolated perfused rat livers; cited from earlier work
ECV304 human cell line = tested on: ECV304 human cell line; design: method as in PMID 18704879; conditions: ECV304 in vitro BBB model; cited from earlier work
[4] = design: method as in PMID 22411722; conditions: rats; cited from earlier work
[5] = design: method as in PMID 16220575; conditions: human, oral 600 mg valerian extract; cited from earlier work

Compound: COc1cc([C@H]2OC[C@]3(O)[C@@H](c4ccc(O)c(OC)c4)OC[C@H]23)ccc1O [8-Hydroxypinoresinol, 8-Hydroxy-pinoresinol]
Allosteric modulation of adenosine-induced cAMP inhibition (shift of concentration-response curve) [1]: no significant shift

Compound: COc1ccc([C@@H]2CC(=O)c3c(O)cc(O[C@@H]4O[C@H](CO[C@@H]5O[C@@H](C)[C@H](O)[C@@H](O)[C@H]5O)[C@@H](O)[C@H](O)[C@H]4O)cc3O2)cc1O [Hesperidin]
Allosteric modulation of adenosine-induced cAMP inhibition (shift of concentration-response curve) [1]: slight leftward shift in the dose-response curve

Compound: COc1cc([C@H]2OC[C@](O)(Cc3ccc(O[C@@H]4O[C@H](CO)[C@@H](O)[C@H](O)[C@H]4O)c(OC)c3)[C@@H]2CO)ccc1O [Olivil-4-O-glucoside, (−)-olivil 4′-O-glucoside]
Allosteric modulation of adenosine-induced cAMP inhibition (shift of concentration-response curve) [1]: no significant shift

Compound: COc1cc([C@H]2OC[C@H]3[C@@H]2CO[C@@H]3c2ccc(O[C@@H]3O[C@H](CO)[C@@H](O)[C@H](O)[C@H]3O)c(OC)c2)ccc1O[C@@H]1O[C@H](CO)[C@@H](O)[C@H](O)[C@H]1O [Pinoresinol diglucoside, pinoresinol-diglucoside]
Allosteric modulation of adenosine-induced cAMP inhibition (shift of concentration-response curve) [1]: no significant shift

Compound: COc1cc([C@H]2OC[C@H]3[C@@H]2CO[C@@H]3c2ccc(O)c(OC)c2)ccc1O [Pinoresinol, (+)-pinoresinol]
Intrinsic agonist activity: effect on forskolin-stimulated cAMP levels in the absence of adenosine [2]: no significant reduction in cAMP levels
Logαβ (binding and activation cooperativity) [1]: 0.53
αβ [1]: 3.42
τB [1]: 0.93
Kb [1]: 25.8 µM
Kd [1]: 26.3 µM
Logαβ (binding and activation cooperativity) (human A1 receptor): −0.1
LogτB (operational efficacy as allosteric agonist) (human A1 receptor): 0.22
αβ (human A1 receptor): 0.79
τB (human A1 receptor): 1.66
Kb (human A1 receptor): 316 µM
Kd (human A1 receptor): 316 µM

Compound: COc1cc([C@H]2OC[C@H]3[C@@H]2CO[C@@H]3c2ccc(O[C@@H]3O[C@H](CO)[C@@H](O)[C@H](O)[C@H]3O)c(OC)c2)ccc1O [Pinoresinol-4-O-glucoside, pinoresinol-4-O-Glucoside]
Allosteric modulation of adenosine-induced cAMP inhibition (shift of concentration-response curve) [1]: no significant shift

Compound: CC(=O)O[C@@H]1CC(C)=C2[C@H]1[C@H](C)CC[C@H]2/C=C(\C)C(=O)O [acetoxyvalerenic acid]
permeation of the BBB model relative to diazepam (ECV304 human cell line): significantly slower than diazepam

Compound: CC1=C2[C@@H]([C@H](C)CC[C@H]2/C=C(\C)C(=O)O)[C@H](O)C1 [hydroxyvalerenic acid]
permeation of the BBB model relative to diazepam (ECV304 human cell line): significantly slower than diazepam

The next lines start with results.

Allosteric modulation of adenosine-induced cAMP inhibition (shift of concentration-response curve) [1]: no significant shift
Compound: O=C(/C=C/c1ccc(O)c(O)c1)O[C@@H]1C[C@](O)(C(=O)O)C[C@@H](O)[C@H]1O [Chlorogenic acid, chlorogenic acid]

Allosteric modulation of adenosine-induced cAMP inhibition (shift of concentration-response curve) [1]: no significant shift
Compound: O=C(O)/C=C/c1ccc(O)cc1 [Coumaric acid, coumaric acid]

Allosteric modulation of adenosine-induced cAMP inhibition (shift of concentration-response curve) [1]: no significant shift
Compound: COc1cc(/C=C/C(=O)O)ccc1O [Ferulic acid, trans-ferulic acid]

Allosteric modulation of adenosine-induced cAMP inhibition (shift of concentration-response curve) [1]: no significant shift
Compound: COc1ccc(/C=C/C(=O)O)cc1O [Isoferulic acid, trans-isoferulic acid]

Allosteric modulation of adenosine-induced cAMP inhibition (shift of concentration-response curve) [1]: no significant shift
Compound: COc1cc(C[C@]2(O)CO[C@@H](c3ccc(O)c(OC)c3)[C@@H]2CO)ccc1O [Olivil, (−)-olivil]

Logαβ (binding and activation cooperativity) [1]: −0.43
LogτB (operational efficacy as allosteric agonist) [1]: 0.42
αβ [1]: 0.37
τB [1]: 2.66
Kb [1]: 9.38 µM
Kd [1]: 9.55 µM
Logαβ (binding and activation cooperativity) (human A1 receptor): 1.11
LogτB (operational efficacy as allosteric agonist) (human A1 receptor): 0.3
αβ (human A1 receptor): 12.73
τB (human A1 receptor): 1.99
Kb (human A1 receptor): 10.8 µM
Kd (human A1 receptor): 11 µM
Compound: Nc1scc(-c2cccc(C(F)(F)F)c2)c1C(=O)c1ccccc1 [VCP 171, reference compound]
effect on binding affinity of orthosteric agonists (human A1 receptors): enhanced the binding affinity of orthosteric agonists
effect on binding affinity of orthosteric agonists (rat A1 receptors): enhanced the binding affinity of orthosteric agonists

Intrinsic agonist activity: effect on forskolin-stimulated cAMP levels in the absence of adenosine [2]: no significant reduction in cAMP levels
Logαβ (binding and activation cooperativity) [1]: 0.68
LogτB (operational efficacy as allosteric agonist) [1]: 0.77
αβ [1]: 4.79
τB [1]: 5.98
Kb [1]: 244 µM
Logαβ (binding and activation cooperativity) (human A1 receptor): 1.36
LogτB (operational efficacy as allosteric agonist) (human A1 receptor): 0.49
αβ (human A1 receptor): 23.38
τB (human A1 receptor): 3.14
Kb (human A1 receptor): 17.4 µM
Compound: CC1=C2[C@H](/C=C(\C)C(=O)O)CC[C@@H](C)[C@H]2CC1 [Valerenic Acid, Valerenic acid]
hepatic metabolism [3]: undergoes extensive hepatic metabolism, primarily through glucuronidation
permeation of the BBB model relative to diazepam (ECV304 human cell line): significantly slower than diazepam
oral bioavailability [4]: 33.7%
half-life [5]: approximately 1.1 h
peak plasma concentration of valerenic acid (molar) [5]: ~ 10 nM
